# What was measured:
# TiRP tumor [1] = test: Immunodeficient Rag1-/- TiRP+/+ mice, TiRP tumor; format: in vivo, mouse; conditions: Rag1-/- TiRP+/+ mice lacking T cells, 5 mg/kg i.p. daily from about 500 mm^3 (day 0) to day 15, vs control; FIG. 4
# Procedure: FIG. 4 is a graph showing the tumor size in the immunodeficient Rag1^-/- TiRP^+/+ mice that were injected with 4-OH-Tamoxifen to induce a TiRP tumor. When the tumor reached 500 mm^3 (day 0), the tumor bearing mice were randomized and received daily injections of guanabenz (5 mg/kg, i.p.) or vehicle (PBS, i.p.) until the day of sacrifice (day 15). A fresh solution of […]-Tamoxifen was prepared by dissolving […]-Tamoxifen ([…]) in 100% ethanol and mineral oil (ratio 1:9) followed by 30-min sonication, and injected subcutaneously (2 mg/200 μL per mouse) in the neck area of gender-matched 7 weeks old TiRP mice. Tumor appearance was monitored daily and tumors were measured three times/week. Tumor volume (in mm^3) was calculated by the following formula: Volume=width^2×length/2. Tumor-bearing TiRP mice were randomized based on the tumor size when average volume was 400 mm^3, 500 mm^3 or 1000 mm^3 as indicated. T cells were incubated with guanabenz (10, 20, or 40 μM) for 16 h to 24 h as indicated. Mice received a daily intra-peritoneal injection of guanabenz (5 mg/kg) or vehicle (PBS) from the day of randomization (and the day of ACT when applicable) until the day of sacrifice. As a control, tumors were induced in immunodeficient TiRP mice lacking T cells due to the deletion of the Rag1 gene (Rag 1^-/- TiRP^+/+ mice). […]
# TiRP tumor [2] = test: TiRP melanoma model, drug alone; format: in vivo, mouse; conditions: 5 mg/kg i.p. daily from tumor size around 400 mm^3 (day 0) to day 12, vs vehicle; FIG. 3
# Description: TiRP mice: TiRP mice have been created by crossing Ink4a/Arf^flox/flox mice with mice carrying a transgenic construct controlled by the tyrosinase promoter and driving the expression of H-Ras^12V and Trap1a which encodes a MAGE-type tumor antigen P1A; the promoter is separated from the coding region by a stop cassette made of a floxed self-deleting CreER (Huijbers et al., 2006, Cancer Res 66, 3278-3286). Those mice were backcrossed to a B10.D2 background and bred to homozygosity. TCRP1A mice heterozygous for the H-2Ld/P1A35-43-specific TCR transgene were kept on the B10.D2; Rag1^−/− background (Shanker et al., 2004, J Immunol 172, 5069-5077). All mice used in this study were produced under specific pathogen free (SPF) conditions at the animal facility of the Ludwig Institute for Cancer Research. All the rules concerning animal welfare have been respected according to the 2010/63/EU Directive. […]
# A fresh solution of 40H-Tamoxifen was prepared by dissolving 40H-Tamoxifen (Imaginechem) in 100% ethanol and mineral oil (ratio 1:9) followed by 30-min sonication, and injected subcutaneously (2 mg/200 μL per mouse) in the neck area of gender-matched 7 weeks old TiRP mice. Tumor appearance was monitored daily and tumors were measured three times/week. Tumor volume (in mm^3) was calculated by the following formula: Volume=width^2×length/2. […]
# [3] = test system: P1A-antigen specific CD8+ T cells; test: Immunization with irradiated L1210-P1A-B7.1 tumor cells; format: in vivo, DBA/2 mice; conditions: 100 μg (5 mg/kg) guanabenz with vaccine, vs negative control and immunization alone
# Procedure: Immunization with irradiated L1210-P1A-B7.1 tumor cells: DBA/2 mice received a vaccine consisting of 1 million irradiated L1210-P1A-B7.1 cells expressing the P1A antigen either alone or with 100 μg (5 mg/kg) guanabenz. When administered, guanabenz was given 1 hour before the immunization and daily after the immunization.
# Tetramer staining: one week after the immunization, the spleen of each mouse was collected. Isolated splenocytes from the immunized mice were cultured and restimulated with L1210-P1A-B7.1 cells at a ratio of 1:1. Four days after restimulation, P1A-antigen specific CD8^+ T cells were stained with PE-conjugated P1A tetramer and APC-conjugated anti-CD8 antibody.
# Interferon gamma secretion: one week after the immunization, the spleen of each mouse was collected. Splenocytes from the immunized mice were restimulated with L1210-P1A-B7.1 cells at a ratio of 1:1. Four days after restimulation, the splenocytes were collected and plated at 50,000 cells per well in 96 U plate. L1210-P1A-B7.1 cells were added to each well as target cells at a ratio of 1:1. The plate was then incubated at 37° C. overnight. At the end of the incubation, the supernatant from the cells were collected and the amount of secreted IFNγ was measured by ELISA according to the manufacturer's instruction (R&D). […]
smiles,measurement,setting,value
"NC(N)=N/N=C/c1c(Cl)cccc1Cl [guanabenz, 2-[(E)-(2,6-dichlorophenyl)methylideneamino]guanidine]",TiRP tumor growth,TiRP tumor [1],did not induce a decrease
same,TiRP tumor growth,TiRP tumor [2],inhibitory effect
same,splenocyte IFNγ secretion (ELISA),"[3]; activation with L1210-P1A-B7.1 cells, FIG. 7B",significant increase
same,percentage of P1A-antigen specific CD8+ T cells among total CD8+ T cells after restimulation with the P1A-antigen,"[3]; splenocytes one week after immunization, FIG. 7A",significant increase

# Reference: patent US20210353749A1, “GUANABENZ AS AN ADJUVANT FOR IMMUNOTHERAPY” (UNIVERSITÉ CATHOLIQUE DE LOUVAIN, priority 2018, published 2021)
